Data from patent US20210300943A1, “OGA INHIBITOR COMPOUNDS” (Janssen Pharmaceutica NV, priority 2018, published 2021).
Structures can show the parent of a compound that is named as a salt.

Key:
[1] = molecular target: T1, OGA (Homo sapiens, UniProt O60502); assay: OGA cellular assay (ICC detection of O-GlcNAcylated proteins in HEK293 cells inducible for P301L mutant human Tau); assay type: cell-based; settings: for Emax: HEK293, HEK293 cells inducible for P301L mutant human Tau; for Emax / Cellular Emax (%): maximal effect, Thiamet G 200 uM as maximum; for EC50 / Cellular Emax (%): HEK293 cells inducible for P301L mutant human Tau; for EC50: 6 hours incubation, read-out: Cellular hOGA, pEC50 (converted)
T1 construct: endogenous in cells; host or cells: HEK293 cells inducible for P301L mutant human Tau (2N4R)
T1 sequence (O60502 1-916): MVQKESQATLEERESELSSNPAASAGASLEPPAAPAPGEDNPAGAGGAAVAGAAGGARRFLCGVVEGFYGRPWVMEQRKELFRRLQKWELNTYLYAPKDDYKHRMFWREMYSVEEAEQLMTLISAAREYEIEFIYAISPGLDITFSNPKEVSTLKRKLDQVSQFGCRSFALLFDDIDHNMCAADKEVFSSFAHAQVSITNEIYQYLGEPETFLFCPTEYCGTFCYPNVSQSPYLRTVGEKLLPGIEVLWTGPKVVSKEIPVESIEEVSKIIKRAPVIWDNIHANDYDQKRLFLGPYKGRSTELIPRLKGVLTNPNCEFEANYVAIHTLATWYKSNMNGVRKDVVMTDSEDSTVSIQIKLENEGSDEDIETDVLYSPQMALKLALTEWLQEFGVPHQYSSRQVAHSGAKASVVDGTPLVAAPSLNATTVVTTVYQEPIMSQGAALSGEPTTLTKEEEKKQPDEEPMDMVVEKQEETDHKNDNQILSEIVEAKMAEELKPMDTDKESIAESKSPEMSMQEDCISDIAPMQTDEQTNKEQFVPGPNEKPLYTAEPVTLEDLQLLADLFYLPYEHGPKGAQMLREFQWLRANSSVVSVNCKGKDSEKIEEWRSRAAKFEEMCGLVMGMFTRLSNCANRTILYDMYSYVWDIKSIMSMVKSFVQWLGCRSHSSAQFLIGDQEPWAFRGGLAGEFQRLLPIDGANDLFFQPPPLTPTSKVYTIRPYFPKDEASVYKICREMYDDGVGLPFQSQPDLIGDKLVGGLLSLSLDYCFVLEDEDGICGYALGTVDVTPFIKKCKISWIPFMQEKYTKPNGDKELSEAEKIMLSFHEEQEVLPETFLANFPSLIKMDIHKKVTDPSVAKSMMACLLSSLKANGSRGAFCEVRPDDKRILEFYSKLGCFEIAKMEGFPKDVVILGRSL
Summary of the method: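 HEK293 cells inducible for P301L Tau, in low-glucose assay medium, treated 6 h with compound at 0.2% DMSO. O-GlcNAcylated proteins detected by CTD110.6 immunostaining, imaged at 488 nm with Hoechst nuclear counts for toxicity. IC50 from non-linear regression, 200 uM Thiamet G as maximum.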

[2] = molecular target: T2, recombinant human Meningioma Expressed Antigen 5 (MGEA5), also referred to as O-GlcNAcase (OGA) (Homo sapiens, UniProt O60502); assay: OGA biochemical assay (inhibition of FM-GlcNAc hydrolysis, fluorescence); settings: for Emax / Enzymatic Emax (%): maximal effect; for Emax: read-out: Enzymatic Emax (%); for IC50: read-out: Enzymatic hOGA, pIC50 (converted)
T2 construct: Full length OGA enzyme was purchased at OnGene (cat #TP322411); purchased OnGene (so in the source)
T2 sequence (O60502 1-916): T1 sequence (O60502 1-916)
Summary of the method: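 Full-length recombinant OGA (2 nM) pre-incubated with compound 60 min at room temperature, then FM-GlcNAc (100 µM final) added in citrate/phosphate buffer pH 7.2 with 0.005% Tween-20. After 6 h at room temperature, stopped with carbonate pH 11.0; fluorescein read at 485/538 nm; IC50 and Hill coefficient from curve fit.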

COc1cc(NCC2CCCN(C(C)c3cc4c(cc3F)OCCO4)C2)cc(C)n1 (stereo not shown) (as salt: HCl) [Product 38]
melting point: 164.7 °C

Cc1cc(NCC2CCCN(C(C)c3ccc4c(c3)OCC4)C2)cc(C)n1 (stereo not shown) (as salt: HCl) [Product 22]
melting point: 248.4 °C

Cc1cc(NCC2CCCN(C(C)c3cc4c(cc3F)OCCO4)C2)cc(C(F)(F)F)n1 (stereo not shown) (as salt: HCl) [Product 99]
melting point: 235.3 °C

COc1cc(NCC2CCCN(C(C)c3ccc4c(n3)OCCO4)C2)cc(C)n1 (stereo not shown) [Product 23]
Emax [1]: 81%
EC50 [1]: 0.00794 µM
Emax [2]: 100%
IC50 [2]: 0.01 µM

Cc1cc(C[C@H]2CCCN(C(C)c3cnc4c(c3)OCCN4C)C2)cc(C)n1 (mixture of isomers) [Product 56]
Emax [1]: 78%
EC50 [1]: 0.316 µM
Emax [2]: 102%
IC50 [2]: 0.0158 µM

Cc1cc(OC2CCCN(C(C)c3ccc4c(n3)OCCO4)C2)cc(C(F)(F)F)n1 (stereo not shown) [Product 138]
Emax [1]: 16%
EC50 [1]: > 1 µM
Emax [2]: 101%
IC50 [2]: 0.126 µM

Cc1cc(OC[C@H]2CCCN(C(C)c3ccc4c(n3)OCCO4)C2)nc(C)n1 (single isomer, unassigned) [Product 163]
EC50 [1]: 0.0457 µM
Cellular Emax (%) [1]: 82%
Enzymatic Emax (%) [2]: 100%
IC50 [2]: 0.00794 µM

Cc1cc([C@H]2CCCN(C(C)c3ccc4c(n3)OCCO4)C2)cc(C)n1 (single isomer, unassigned) [Product 149]
Emax [1]: 93%
EC50 [1]: 0.0316 µM
Emax [2]: 100%
IC50 [2]: 0.01 µM

Cc1cc(OC[C@H]2CCCN([C@H](C)c3ccc4c(n3)OCCO4)C2)nc(C)n1 (mixture of isomers) [Product 114]
Emax [1]: 66%
EC50 [1]: 0.158 µM
Emax [2]: 100%
IC50 [2]: 0.0158 µM

Cc1cc(C[C@H]2CCCN(C(C)c3cc4c(cc3F)OCCO4)C2)cc(C(F)(F)F)n1 (mixture of isomers) [Product 68]
Emax [1]: 79%
EC50 [1]: 0.0398 µM
Emax [2]: 102%
IC50 [2]: 0.00631 µM

Cc1cc(C[C@H]2CCCN([C@@H](C)c3ccc4c(n3)OCCO4)C2)cc(C)n1 (single isomer, unassigned) [Product 46]
Emax [1]: 90%
EC50 [1]: 0.0158 µM
Emax [2]: 101%
IC50 [2]: 0.00316 µM

Cc1cc(OC[C@H]2CCCN(C(C)c3ccc4c(n3)OCCO4)C2)cc(C)n1 (mixture of isomers) [Product 19]
Emax [1]: 86%
EC50 [1]: 0.0316 µM
Emax [2]: 102%
IC50 [2]: 0.00794 µM

Cc1cc(C2CCCN(C(C)c3ccc4c(n3)OCCO4)C2)cc(C(F)F)n1 (stereo not shown) [Product 188]
Emax [1]: 79%
EC50 [1]: 0.1 µM
Emax [2]: 102%
IC50 [2]: 0.01 µM

Cc1cc(OC2CCCN(C(C)c3ccc4c(n3)OCCO4)C2)cc(C)n1 (stereo not shown) [Product 136]
Emax [1]: 60%
EC50 [1]: 0.631 µM
Emax [2]: 101%
IC50 [2]: 0.00398 µM

Cc1cc(C2CCCN(C(C)c3nc4c(cc3F)OCCO4)C2)cc(C(F)F)n1 (stereo not shown) [Product 187]
Emax [1]: 92%
EC50 [1]: 0.0126 µM
Emax [2]: 96%
IC50 [2]: 0.00794 µM

Cc1cc(OC[C@@H]2CCCN([C@H](C)c3ccc4c(n3)OCCO4)C2)cc(C)n1 (relative stereo) [Product 109]
Emax [1]: 37%
EC50 [1]: > 1 µM
Emax [2]: 95%
IC50 [2]: 0.251 µM

Cc1cc(C[C@H]2CCCN(C(C)c3cnc4c(c3)OCCO4)C2)cc(C)n1 (single isomer, unassigned) [Product 132]
Emax [1]: 77%
EC50 [1]: 0.0794 µM
Emax [2]: 103%
IC50 [2]: 0.00501 µM

Cc1cc(C2CCCN(C(C)c3ccc4c(n3)OCCO4)C2)cc(C(F)(F)F)n1 (stereo not shown) [Product 8]
Emax [1]: 86%
EC50 [1]: 0.2 µM
Emax [2]: 100%
IC50 [2]: 0.0158 µM

Cc1cc(C2CCCN(C(C)c3nc4c(cc3F)OCCO4)C2)cc(C)n1 (stereo not shown) [Product 151]
Emax [1]: 85%
EC50 [1]: 0.00692 µM
Emax [2]: 102%
IC50 [2]: 0.00631 µM

Cc1cc(OC[C@H]2CCCN([C@@H](C)c3nc4c(cc3F)OCCO4)C2)cc(C)n1 [Product 153]
Emax [1]: 94%
EC50 [1]: 0.00251 µM
Emax [2]: 102%
IC50 [2]: 0.00158 µM

COc1cc(OC[C@H]2CCCN([C@H](C)c3ccc4c(n3)OCCO4)C2)cc(C)n1 (racemic) [Product 110]
Emax [1]: 68%
EC50 [1]: 0.316 µM
Emax [2]: 102%
IC50 [2]: 0.0126 µM

COc1cc(NC[C@H]2CCCN(C(C)c3ccc4c(n3)OCCO4)C2)cc(C)n1 (mixture of isomers) [Product 24]
Emax [1]: 69%
EC50 [1]: 0.00794 µM
Emax [2]: 102%
IC50 [2]: 0.00794 µM

Cc1cc([C@H]2CCCN([C@@H](C)c3ccc4c(n3)OCCO4)C2)cc(C)n1 (single isomer, unassigned) [Product 159]
Emax [1]: 0%
EC50 [1]: > 1 µM
Emax [2]: 91%
IC50 [2]: 1.26 µM

Cc1cc(CC2(F)CCCN([C@@H](C)c3ccc4c(n3)OCCO4)C2)cc(C)n1 (single isomer, unassigned) [Product 177]
Emax [1]: -8%
EC50 [1]: > 1 µM
Emax [2]: 81%
IC50 [2]: 2.51 µM

COc1cc(C[C@H]2CCCN([C@H](C)c3ccc4c(n3)OCCO4)C2)cc(C)n1 [Product 64]
Emax [1]: 97%
EC50 [1]: 0.0158 µM
Emax [2]: 101%
IC50 [2]: 0.00398 µM

Cc1cc(CC2(F)CCCN([C@H](C)c3nc4c(cc3F)OCCO4)C2)cc(C)n1 (single isomer, unassigned) [Product 174]
Emax [1]: 75%
EC50 [1]: 0.0631 µM
Emax [2]: 99%
IC50 [2]: 0.00631 µM

COc1cc(NCC2CCCN(C(C)c3ccc4c(n3)OCCO4)C2)cc(C)n1 (stereo not shown) (as salt: HCl) [Product 23]
melting point: 266.7 °C

COc1cc(N[C@H]2CCCN(C(C)c3ccc4c(n3)OCCO4)C2)cc(C)n1 (stereo partly shown) [Product 192]
Emax [1]: 91%
EC50 [1]: 0.02 µM
Emax [2]: 99%
IC50 [2]: 0.00631 µM

Cc1cc(OC2CCCN(C(C)c3cc4c(cc3F)OCCO4)C2)cc(C(F)(F)F)n1 (stereo not shown) [Product 15]
Emax [1]: 16%
EC50 [1]: > 1 µM
Emax [2]: 103%
IC50 [2]: 0.02 µM

COc1cc(C2CCCN(C(C)c3ccc4c(n3)OCCO4)C2)cc(C)n1 (stereo not shown) [Product 7]
Emax [1]: 77%
EC50 [1]: 0.1 µM
Emax [2]: 103%
IC50 [2]: 0.0126 µM

Cc1cc(CO[C@H]2CCCN(C(C)c3nc4c(cc3F)OCCO4)C2)cc(C)n1 (single isomer, unassigned) [Product 170]
EC50 [1]: 0.0126 µM
Cellular Emax (%) [1]: 79%
Enzymatic Emax (%) [2]: 98%
IC50 [2]: 0.00316 µM

Cc1cc(OC[C@@H]2CCCN([C@@H](C)c3ccc4c(n3)OCCO4)C2)cc(C)n1 (relative stereo) [Product 108]
Emax [1]: -8%
EC50 [1]: > 1 µM
Emax [2]: 37%
IC50 [2]: > 10 µM

Cc1cc(OC[C@H]2CCCN(C(C)c3nc4c(cc3F)CCO4)C2)cc(C)n1 (mixture of isomers) [Product 178]
Emax [1]: 104%
EC50 [1]: 0.00251 µM
Emax [2]: 95%
IC50 [2]: 0.00251 µM

Cc1cc(CO[C@H]2CCCN(C(C)c3ccc4c(n3)OCCO4)C2)cc(C)n1 (single isomer, unassigned) [Product 167]
EC50 [1]: > 1 µM
Cellular Emax (%) [1]: 26%
Enzymatic Emax (%) [2]: 97%
IC50 [2]: 0.158 µM

Cc1cc([C@@H]2CCCN([C@H](C)c3ccc4c(n3)OCCO4)C2)cc(C)n1 (single isomer, unassigned) [Product 160]
Emax [1]: 5%
EC50 [1]: > 1 µM
Emax [2]: 89%
IC50 [2]: 2 µM

Cc1cc(CC2CN(C(C)c3ccc4c(n3)OCCO4)CCC2O)cc(C)n1 (stereo not shown) [Product 173]
Emax [1]: 64%
EC50 [1]: 0.631 µM
Emax [2]: 99%
IC50 [2]: 0.0631 µM

Cc1cc(C2CCCN(C(C)c3ccc4c(n3)OCCO4)C2)cc(C)n1 (stereo not shown) [Product 1]
Emax [1]: 77%
EC50 [1]: 0.1 µM
Emax [2]: 102%
IC50 [2]: 0.02 µM
